Results published in patent publication US20250179106A1, “Metal Bis(Imino) Aryl Compounds and Methods Thereof” (EXXONMOBIL CHEMICAL PATENTS INC., priority 2022, published 2025).

Experiment: Solubility of catalysts in alkane solvent
Assay type: physicochemical
Settings: ambient temperature (20-25° C.)
Method: General considerations: Solubility studies for all catalysts were performed using material as synthesized, unless otherwise noted. Solvents used were sparged with nitrogen (30-60 minutes) and dried over 3 Å mole sieves. Unless stated otherwise, all measurements were performed at ambient temperature (20-25° C.).
A measured mass of solvent was added to a known amount of catalyst. After stirring for at least 30 minutes or more, the resulting mixture was filtered. The filtrate was concentrated is to dryness, and the remaining catalyst was weighed to provide the mass of dissolved catalyst. Solubility was calculated using the formula below.
Alternatively, for mixtures prepared at a low concentration (<0.25 wt %) which remained heterogeneous (visible solids or murky), the value may be reported as being “less than” the calculated value.
Formula used to calculate solubility is listed below.

With `CCCC[Si](CCCC)(CCCC)CC(=Nc1c(C)cccc1C)c1cccc(C(C[Si](CCCC)(CCCC)CCCC)=Nc2c(C)cccc2C)n1.[Cl][Fe][Cl]` [Catalyst 3] as the molecule, how does the “Solubility (wt %)” value (solvent isohexane) read?
The value was 4.2 wt %.

With `CCCC[Si](CCCC)(CCCC)CC(=Nc1c(C)cc(Cl)cc1C)c1cccc(C(C[Si](CCCC)(CCCC)CCCC)=Nc2c(C)cc(Cl)cc2C)n1.[Cl][Fe][Cl]` [Catalyst 7] as the molecule, how does the “Solubility (wt %)” value (solvent pentane) read?
The value was 2.6 wt %.

With `CCCC[Si](CCCC)(CCCC)CC(=Nc1c(C)ccc(Cl)c1C)c1cccc(C(C[Si](CCCC)(CCCC)CCCC)=Nc2c(C)ccc(Cl)c2C)n1.[Cl][Fe][Cl]` [Catalyst 8] as the molecule, how does the “Solubility (wt %)” value (solvent pentane) read?
The value was 1.7 wt %.

For `CCCC[Si](CCCC)(CCCC)CC(=Nc1c(C)cc(C)cc1Cl)c1cccc(C(C[Si](CCCC)(CCCC)CCCC)=Nc2c(C)cc(C)cc2Cl)n1.[Cl][Fe][Cl]` [Catalyst 9], which “Solubility (wt %)” value (solvent pentane) is on record?
Its value is 0.15 wt %.
